Laboratory results taken from US5140025A, “Thienotricylene for the treatment of bronchial diseases” (BYK Gulden Lomberg Chemische Fabrik GmbH, priority 1987, dated 1992).
Where two headings read alike, the source gives them in different places.

What was measured:
M1 receptor (ganglionic) = test: Receptor affinity, electrically stimulated rabbit vas deferens in organ bath; conditions: vas deferens of the rabbit, agonist McN-A-343, Schild slope normalised to 1.00
Experimental: Isometric contractions (HSE force transducer, K-30; tilt and zones, BD-9 chart recorder) of isolated seminal duct sections of rabbits (male, white New Zealand rabbits, 2.5-3.5 kg) were recorded in an organ bath (10 ml, 31° C., gassing with carbogen, initial tension of the organs 0.75 g) under electrical stimultion (HSE stimulator; hook-shaped Pt electrode 1 cm below the water surface of the bath; 30 V, 0.5 ms, 0.05 Hz). After an equilibration time of 30 minutes, cumulative dose/response curves of McN-A-343 (10^-7 -2×10^-6 M) were recorded simultaneously on 8 organ sections in each case (control curves), using the technique described by van Rossum (1963). After 3 control curves, a fixed concentration of the agonist (for example 5×10^-7, 10^-6, 3×10^-6, 10^-5 or 3×10^-5 M) per organ section was applied and, after stabilisation of the effect, increasing concentrations of the agonist to be tested were added. The nutrient solution used had the following composition (mM): NaCl 118, KCl 4.7, CaCl2 ·2H2 O 2.5, MgSO4 ·7H2 O 0.6, KH2 PO 4 1.2, NaHCO3 25.0 and glucose 11.1. In order to block α2 -adrenoreceptors, the nutrient solution additionally contained 10^-6 M yohimbine.
The Tyrode nutrient solution used had the following composition (mM): NaCl 130, KCl 2.0, CaCl2 ·2H2 O 1.8, MgCl2 ·6H2 O 0.98, NaHCO3 12.0, NaH2 PO4 0.42 and glucose monohydrate 5.6. pA2 values (-log of the molar dissociation constants of the competitive antagonist-receptor complex) were determined by linear regression using the Schild plot: pA2 =-log [B/(x-1)], (Arunlakshana and Schild, 1959).

[1] = system: acetylcholine-induced bronchospasm; test: Acetylcholine-induced bronchospasm in anaesthetised, spontaneously breathing guinea pigs, intravenous administration; format: in vivo, guinea pig (Pirbright White); conditions: for Mean bronchospasmolytic activity, percentage increase of Vmaxe vs control spasm / Mean bronchospasmolytic activity, percentage increase of tidal volume (TV) vs control spasm: 0-60 min; for Mean bronchospasmolytic activity, percentage increase of Vmaxe vs control spasm / Mean bronchospasmolytic activity, percentage increase of tidal volume (TV) vs control spasm / Bronchospasmolytic activity, percentage increase of Vmaxe vs control spasm / Bronchospasmolytic activity, percentage increase of tidal volume (TV) vs control spasm: x±SEM, N=10; for ED50: Cavia porcellus, iv, 1 h, mean activity 0-60 min; for Bronchospasmolytic activity, percentage increase of Vmaxe vs control spasm / Bronchospasmolytic activity, percentage increase of tidal volume (TV) vs control spasm: at 60 min
Source text: Effect of Intravenously Administered Telenzepine on Acetylchline-Induced Bronchospasms in Anaesthetised, Spontaneously Breathing Guinea Pigs
Method for simultaneously recording pharmacodynamic or toxic effects on interior sensitive receptors and the respiration of guinea pigs (U. Kilian, E. Muller, E. Ch. Dittmann and J. Hamacher, Arzneim.-Forsch. 28, 1699-1708, 1978).
Pirbright White, Interfauna (Tuttlingen), 350-450 g, male.
Ethylurethane 1.2 g/kg i.p. as 12.5% aqueous solution.
Pneumotachogram: Maximum flow velocities of the respiratory air during expiration (Vmaxe, "peak flow"), tidal volume (TV).
Acetylcholine as spasmogen, 0.2-0.3 μmol/kg i.v., dissolved in 0.9% NaCl.
-10 min control spasm, 0 min administration of substance, +2, +10, +20, +30, +60 min test spasms.
Determination of the effect of telenzepine on the parameters (mean and standard error of mean, n=10) and calculation of the bronchospasmolytic activity from this as percentage inhibition of the acetylcholine-induced decrease of Vmaxe and TV by means of time/effect curves. Computation of a dose/response curve of the mean bronchospasmolytic activity during the observation time (0-60 min) from the areas under the time/effect curves and reading of 1 h ED50 values. Determination of a dose/response curve of the bronchospasmolytic activity at time 60 min and reading ED50 values.

[2] = system: modified Shay rat (lesion formation and acid secretion); test: Antiulcerogenic and secretion-inhibiting action on the modified Shay rat; format: in vivo; conditions: Rattus norvegicus, iv, 4 h, modified Shay rat, i.v., interpolated dose, 4 h, N=24
Source text: The excellent gastric protective action and the gastric secretion-inhibiting action of the compound (+)-4,9-dihydro-3-methyl-4-[(4-methyl-1-piperazinyl)-acetyl]-10H-thieno[3,4-b][1,5]benzodiazepin-10-one (=compound 1 in Table 8 below) in comparison with the corresponding (-)-enantiomer (=compound 3) and with the racemate (=compound 2) can be detected in studies on the modified Shay rat. The effect of the stated compounds after intravenous (i.v.) administration on the formation of lesions and the acid secretion in the modified Shay rat is shown in Table 8 below.
Ulcers are provoked in rats (female, 180-200 g, 4 animals per cage on high grids) which have fasted for 24 hours, by pylorus ligature (under diethyl ether anaesthesia) and oral administration of 100 mg/10 ml/kg of acetylsalicylic acid. The substances to be tested are administered intravenously (1 ml/kg) directly after the pylorus ligature. The wound is closed by means of Michel clamps. 4 hours afterwards, the animals are sacrificed under anaesthesia with ether by Atlas dislocation, and resection of the stomach.
The stomach is opened along the greater curvature and clamped to a cork sheet, the amount of secreted gastric juice (volume) is determined first and its HCl content (titration with sodium hydroxide solution) being determined subsequently. The number and size (=diameter) of ulcers present are determined using a stereomicroscope, under 10×magnification. The product of severity (according to the following point scale) and number of ulcers serves as an individual lesion index.
The reduction in the means lesion index of each treated group compared with the control group (=100%) serves as a measure of the antiulcerogenic effect. The ED50 is the dose which reduces the mean lesion index or the HCl secretion by 50% compared with the control.

[3] = system: acetylcholine-induced asthma attacks; test: Acetylcholine-induced asthma attacks in the conscious guinea pig, oral administration; format: in vivo, guinea pig (Pirbright White); conditions: 30 min after administration; for Number of animals, latency period tripled (= protected): 10 animals used
Source text: Effect of orally administered (±)-telenzepine on acetylcholine-induced asthma attacks in the conscious guinea pig
As described by R. Beume, U. Kilian, N. Kolassa, K. Mussler, Atemw.-Lungenkrkh., 11, 342-345, 1985 ("The testing of bronchospasmolytic substances in conscious guinea pigs").
Pirbright White, Interfauna (Tuttlingen), 250-450 g, male, 10 animals per dose and experiment.
Thoracographic measurement of the respiratory activity, measurement of the latency period from the beginning of acetylcholine nebulisation to the beginning of the asthma attack; determination of the number of animals for which, 30 minutes after administration, the latency period of the experimental attack has been at least tripled in relation to the control attack; estimation of the approximate ED50 from this.
0.1, 0.3, 1, 3, 10 and 30 μmol/kg (±)-telenzepine p.o. (in 4% Methocel, administered in 0.9% NaCl); acetylcholine 0.09% in 0.9% NaCl by inhalatin (ultrasonic nebulisation).
The number of animals for which there is at least a tripling of the latency period of the acetylcholine-induced experimental attack in comparison with the control attack as a function of the perorally administered (±)-telenzepine dose is expressed as follows: […]

SMILES: Cc1scc2c1N(C(=O)CN1CCN(C)CC1)c1ccccc1NC2=O (racemic) [(±)-telenzepine, 4,9-dihydro-3-methyl-4-[(4-methyl-1-piperazinyl)-acetyl]-10H-thieno[3,4-b][1,5]benzodiazepin-10-one]
- pA2 ± SEM, M1 receptor (ganglionic) (M1 receptor (ganglionic)): 8.86 ± 0.06
- Mean bronchospasmolytic activity, percentage increase of Vmaxe vs control spasm ([1]; 0.03 μmol/kg i.v.): 7 ± 3%
- Mean bronchospasmolytic activity, percentage increase of tidal volume (TV) vs control spasm ([1]; 0.03 μmol/kg i.v.): 7 ± 3%
- Mean bronchospasmolytic activity, percentage increase of Vmaxe vs control spasm ([1]; 0.05 μmol/kg i.v.): 22 ± 3%
- Mean bronchospasmolytic activity, percentage increase of tidal volume (TV) vs control spasm ([1]; 0.05 μmol/kg i.v.): 26 ± 4%
- Mean bronchospasmolytic activity, percentage increase of Vmaxe vs control spasm ([1]; 0.1 μmol/kg i.v.): 61 ± 8%
- Mean bronchospasmolytic activity, percentage increase of tidal volume (TV) vs control spasm ([1]; 0.1 μmol/kg i.v.): 68 ± 9%
- Mean bronchospasmolytic activity, percentage increase of Vmaxe vs control spasm ([1]; 1 μmol/kg i.v.): 81 ± 4%
- Mean bronchospasmolytic activity, percentage increase of tidal volume (TV) vs control spasm ([1]; 1 μmol/kg i.v.): 84 ± 4%
- Mean bronchospasmolytic activity, percentage increase of Vmaxe vs control spasm ([1]; 5 μmol/kg i.v.): 75 ± 3%
- Mean bronchospasmolytic activity, percentage increase of tidal volume (TV) vs control spasm ([1]; 5 μmol/kg i.v.): 86 ± 2%
- ED50 ([1]; read-out: ED50 of mean bronchospasmolytic activity, TV): 0.07 µmol/kg
- ED50 ([1]; read-out: ED50 of mean bronchospasmolytic activity, Vmaxe): 0.08 µmol/kg
- Bronchospasmolytic activity, percentage increase of Vmaxe vs control spasm ([1]; 0.03 μmol/kg i.v.): 11 ± 4%
- Bronchospasmolytic activity, percentage increase of tidal volume (TV) vs control spasm ([1]; 0.03 μmol/kg i.v.): 12 ± 6%
- Bronchospasmolytic activity, percentage increase of Vmaxe vs control spasm ([1]; 0.05 μmol/kg i.v.): 25 ± 3%
- Bronchospasmolytic activity, percentage increase of tidal volume (TV) vs control spasm ([1]; 0.05 μmol/kg i.v.): 32 ± 5%
- Bronchospasmolytic activity, percentage increase of Vmaxe vs control spasm ([1]; 0.1 μmol/kg i.v.): 70 ± 9%
- Bronchospasmolytic activity, percentage increase of tidal volume (TV) vs control spasm ([1]; 0.1 μmol/kg i.v.): 78 ± 11%
- Bronchospasmolytic activity, percentage increase of Vmaxe vs control spasm ([1]; 1 μmol/kg i.v.): 82 ± 5%
- Bronchospasmolytic activity, percentage increase of tidal volume (TV) vs control spasm ([1]; 1 μmol/kg i.v.): 85 ± 5%
- Bronchospasmolytic activity, percentage increase of Vmaxe vs control spasm ([1]; 5 μmol/kg i.v.): 80 ± 4%
- Bronchospasmolytic activity, percentage increase of tidal volume (TV) vs control spasm ([1]; 5 μmol/kg i.v.): 91 ± 3%
- dose range of dose- and time-dependent inhibition of acetylcholine-induced bronchospasm ([1]; i.v.): 0.03-1 μmol/kg i.v.
- persistence of maximum effect ([1]; i.v., observation period): ≥ 1 h
- ED50 ([2]; read-out: Gastric protective action, reduction of lesion index, about ED50): ~0.042 mg/kg
- ED50 ([2]; read-out: Inhibition of acid secretion, reduction of HCl secretion, about ED50): ~0.18 mg/kg
- Number of animals, latency period tripled (= protected) ([3]; 0.1 μmol/kg p.o.): 3 number of animals
- Number of animals, latency period tripled (= protected) ([3]; 0.3 μmol/kg p.o.): 5 number of animals
- Number of animals, latency period tripled (= protected) ([3]; 1 μmol/kg p.o.): 6 number of animals
- Number of animals, latency period tripled (= protected) ([3]; 3 μmol/kg p.o.): 7 number of animals
- Number of animals, latency period tripled (= protected) ([3]; 10 μmol/kg p.o.): 9 number of animals
- Number of animals, latency period tripled (= protected) ([3]; 30 μmol/kg p.o.): 10 number of animals
- ED50 ([3]; Cavia porcellus, po, 0.5 h, 95% Int. in brackets, read-out: approximate ED50 (at least tripling of latency period)): ~0.7 µmol/kg
